Patent US20210322415A1 (priority 2016, published 2021)

Assays:
c-kit = c-kit (Homo sapiens, UniProt P10721); assay: Target cover in pre-clinical models: modelled mean free plasma concentration vs cellular IC50; type: in vivo; details: doses up to 2.4 mg/kg
Description: 4.8 mg/kg (FIGS. 1M-1P) following dosing zs regimens of once daily continuous (QDCont), once daily 5 days on 2 days off (QD5on2off), or once daily 4 days (QD4on3off). […] The reduction in PK is shown following the last dose of drug (at either 4 or 5 days dosing), and overlaid on each plot (horizontal lines) are the cellular IC50 values generated in vitro for inhibition of pVEGFR-1,-2, pKit, pPDGFRα and pPDGFRβ, as indicated. For the plots exemplifying VEGFR and Kit cover, R-P stands for receptor phosphorylation in a cell based assay; C-P stands for cell proliferation; for VEGFR plots, T-G stands for tubule growth in an endothelial-fibroblast co-culture assay. […] For the graphs depicting PDGFRα and β cover, inhibition of PDGFRα and PDGFRβ phosphorylation and PDGFBB or PDGFAA driven proliferation are shown together with the relevant cell lines.

[1] = system: SW620, Calu6 and A498 tumor xenografts; assay: Tumor xenograft efficacy studies with intermittent dosing; type: in vivo, nude or scid mice; details: for anti-tumor effects: oral once daily
Text: Tumors were selected and randomized into groups when tumor volume reached approximately 0.2 cm^3. […] Groups of 10 animals were used, however in the final cycle cohorts of 5 animals were removed in between dosing group to support assessment of pharmacodynamic biomarkers in the tumor.

[2] = system: OV2022 tumour (ovarian cancer) xenografts; assay: OV2022 patient derived tumour xenograft efficacy study; type: in vivo; details: 3 mg/kg, 5 days on 2 days off vs daily, alone or with 100 mg/kg olaparib
tumors = details: reported in literature; cited from earlier work

Chain of c-kit (P10721 26-976): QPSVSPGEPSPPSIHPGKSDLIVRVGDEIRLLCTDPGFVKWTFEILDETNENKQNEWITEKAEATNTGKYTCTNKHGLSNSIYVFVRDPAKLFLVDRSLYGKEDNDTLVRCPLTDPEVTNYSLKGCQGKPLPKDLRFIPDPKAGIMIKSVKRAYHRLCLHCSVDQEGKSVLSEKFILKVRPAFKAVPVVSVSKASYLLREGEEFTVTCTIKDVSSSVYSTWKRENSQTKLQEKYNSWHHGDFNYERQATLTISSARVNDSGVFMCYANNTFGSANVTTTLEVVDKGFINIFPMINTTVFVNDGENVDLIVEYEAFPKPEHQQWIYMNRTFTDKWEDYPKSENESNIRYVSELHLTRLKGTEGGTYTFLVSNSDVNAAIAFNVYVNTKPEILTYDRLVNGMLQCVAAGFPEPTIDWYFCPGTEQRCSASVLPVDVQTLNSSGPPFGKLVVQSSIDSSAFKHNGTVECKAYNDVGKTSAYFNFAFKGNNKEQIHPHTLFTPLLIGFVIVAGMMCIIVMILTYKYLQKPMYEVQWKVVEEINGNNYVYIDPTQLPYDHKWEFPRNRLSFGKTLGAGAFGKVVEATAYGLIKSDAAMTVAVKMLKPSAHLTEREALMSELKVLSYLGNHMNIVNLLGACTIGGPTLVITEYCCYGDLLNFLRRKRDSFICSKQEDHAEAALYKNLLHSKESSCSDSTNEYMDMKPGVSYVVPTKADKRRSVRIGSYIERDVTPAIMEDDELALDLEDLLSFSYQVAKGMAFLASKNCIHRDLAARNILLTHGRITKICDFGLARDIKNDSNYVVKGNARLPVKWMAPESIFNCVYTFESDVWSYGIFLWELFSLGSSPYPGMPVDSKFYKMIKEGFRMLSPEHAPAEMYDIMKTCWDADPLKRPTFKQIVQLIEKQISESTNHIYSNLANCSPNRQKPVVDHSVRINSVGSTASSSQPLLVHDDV

target cover versus c-kit (c-kit): achieving target cover
Compound: COc1cc2c(Oc3ccc4[nH]c(C)cc4c3F)ncnc2cc1OCCCN1CCCC1.O=C(O)/C=C\C(=O)O [cediranib, 4-[(4-fluoro-2-methyl-1H-indol-5-yl)oxy]-6-methoxy-7-[3-(pyrrolidin-1-yl)propoxy]quinazoline maleate]
efficacy (mean tumor volume versus time) ([1]; 1.5 mg/kg, 4/3 schedule, three 7-day cycles (FIG. 5)): in 2 out of the three models intermittent dosing of cediranib at 1.5 mg/kg on a 4/3 schedule maintains efficacy | efficacy (mean tumor volume versus time) ([1]; 1.5 mg/kg, 5/2 schedule, three 7-day cycles (FIG. 3)): maintains efficacy | efficacy (mean tumor volume versus time) ([1]; 3 mg/kg, 4/3 schedule, three 7-day cycles (FIG. 6)): maintains efficacy | efficacy (mean tumor volume versus time) ([1]; 3 mg/kg, 5/2 schedule, three 7-day cycles (FIG. 4)): maintains efficacy | anti-tumor effects ([1]; 4 days on 3 days off schedule): maintains anti-tumor effects albeit at not as effectively as the 5/2 schedule | anti-tumor effects ([1]; 5 days on 2 days off schedule, monotherapy): maintains anti-tumor effects | anti-tumor activity, intermittent compared to daily schedule ([1]; preclinical in vivo data, 5 days on/2 days off vs daily): no difference in anti-tumor activity | efficacy of intermittent schedule versus constant dose [2]: equivalent efficacy | tumor growth in a range of preclinical models (tumors): inhibit the growth of tumors in a dose-dependent manner
